# From patent US20250177429A1, “ORALLY ACTIVE PRODRUG OF GEMCITABINE” (Laevoroc Chemotherapy AG, priority 2022, published 2025)
# Like-named read-outs stand apart in the source and are kept apart here.
# Tests used:
# [1] = Solubility of the mono-hydrochloride salt in water and buffer solutions; format: physicochemical; conditions: thermodynamic from solid; for solubility at 15 min: solid added until saturation
# Method: In each case, a first estimation was performed by adding small amounts of solvents until dissolution of the solid (50 mg), followed by a second estimation performed through the addition of small amounts of solid to a determined quantity of solvent until saturation was reached (suspension observed after 15 min). This second estimation was undertaken twice for each solution.
# [2] = Powder stability of the API on storage; format: physicochemical; conditions: powder form of the API, FIG. 3
# [3] = Stability in aqueous media at RT; format: physicochemical
# Text: Regarding to the MS profile, most of the observed impurities concern a valproic moiety cleavage and/or valine moiety migration/cleavage. […] In agreement with earlier observation, a lower acidity medium will likely result in a higher ratio of valine hydrolysis.
# [4] = result of first pass metabolism; Shipley et al. 1992; cited from earlier work
# mice = conditions: cited from earlier work
# CDA = CDA (Homo sapiens, UniProt P32320); conditions: Bender et al. 2009; cited from earlier work
# Japanese patients = conditions: phase I, 2013; cited from earlier work
# Sequence of CDA (P32320 whole entry, species assumed): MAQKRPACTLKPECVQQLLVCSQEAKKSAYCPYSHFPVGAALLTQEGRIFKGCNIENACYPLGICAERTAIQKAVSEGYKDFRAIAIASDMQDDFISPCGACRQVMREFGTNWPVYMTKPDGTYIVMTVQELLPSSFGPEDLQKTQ
compound,measurement,setting,value
"CCCC(CCC)C(=O)Nc1ccn([C@@H]2O[C@H](CO)[C@@H](OC(=O)[C@@H](N)C(C)C)C2(F)F)c(=O)n1.Cl [LR-06-B.HCl, (2R,3R,5R)-4,4-difluoro-2-(hydroxymethyl)-5-(2-oxo-4-(2-propylpentanamido)-1,2-dihydropyrimidin-1-yl)oxolan-3-yl (2S)-2-amino-3-methylbutanoate hydrochloride]",solubility,"[1]; buffer solution pH 1.2, pH 1.2, simulated gastric fluid, Buffer pH 1.2, read-out: Mean solubility",211 mg/mL
same,solubility at 15 min,"[1]; buffer solution pH 1.2, pH 1.2, simulated gastric fluid, Buffer pH 1.2, read-out: Solubility, Estimation 2a",217 mg/mL
same,solubility at 15 min,"[1]; buffer solution pH 1.2, pH 1.2, simulated gastric fluid, Buffer pH 1.2, read-out: Solubility, Estimation 2b",208 mg/mL
same,solubility,"[1]; buffer solution pH 1.2, pH 1.2, simulated gastric fluid, Buffer pH 1.2, solvent added until dissolution of 50 mg solid, read-out: Solubility, Estimation 1",207 mg/mL
same,solubility,"[1]; buffer solution pH 4.5, pH 4.5, aqueous buffer, Buffer pH 4.5, read-out: Mean solubility",227 mg/mL
same,solubility at 15 min,"[1]; buffer solution pH 4.5, pH 4.5, aqueous buffer, Buffer pH 4.5, read-out: Solubility, Estimation 2a",236 mg/mL
same,solubility at 15 min,"[1]; buffer solution pH 4.5, pH 4.5, aqueous buffer, Buffer pH 4.5, read-out: Solubility, Estimation 2b",233 mg/mL
same,solubility,"[1]; buffer solution pH 4.5, pH 4.5, aqueous buffer, Buffer pH 4.5, solvent added until dissolution of 50 mg solid, read-out: Solubility, Estimation 1",213 mg/mL
same,solubility,"[1]; buffer solution pH 6.8, pH 6.8, aqueous buffer, Buffer pH 6.8, read-out: Mean solubility",275 mg/mL
same,solubility at 15 min,"[1]; buffer solution pH 6.8, pH 6.8, aqueous buffer, Buffer pH 6.8, read-out: Solubility, Estimation 2a",302 mg/mL
same,solubility at 15 min,"[1]; buffer solution pH 6.8, pH 6.8, aqueous buffer, Buffer pH 6.8, read-out: Solubility, Estimation 2b",280 mg/mL
same,solubility,"[1]; buffer solution pH 6.8, pH 6.8, aqueous buffer, Buffer pH 6.8, solvent added until dissolution of 50 mg solid, read-out: Solubility, Estimation 1",241 mg/mL
same,solubility,"[1]; water, Water, read-out: Mean solubility",394 mg/mL
same,solubility at 15 min,"[1]; water, Water, read-out: Solubility, Estimation 2a",463 mg/mL
same,solubility at 15 min,"[1]; water, Water, read-out: Solubility, Estimation 2b",462 mg/mL
same,solubility,"[1]; water, Water, solvent added until dissolution of 50 mg solid, read-out: Solubility, Estimation 1",257 mg/mL
same,"Powder stability, change on storage",[2]; 3 months' storage at 2-4° C.,no significant change
same,"Powder stability, change on storage",[2]; 3 months' storage at RT,no significant change
same,Stability in aqueous media at RT,"[3]; Water, 30 Min",97.06%
same,Stability in aqueous media at RT,"[3]; Water, 1 hour",96.98%
same,Stability in aqueous media at RT,"[3]; Water, 2 hours",96.89%
same,Stability in aqueous media at RT,"[3]; Water, 4 hours",96.62%
same,Stability in aqueous media at RT,"[3]; Water, 6 hours",96.42%
same,Stability in aqueous media at RT,"[3]; Water, 1 day",94.45%
same,Stability in aqueous media at RT,"[3]; Water, 2 days",91.07%
same,Stability in aqueous media at RT,"[3]; Water, 7 days",77.12%
same,Stability in aqueous media at RT,"[3]; Water, time 0 (API Powder)",97.21%
same,Degradation of the API in aqueous media,"[3]; aqueous media, RT, FIG. 4",significant short-term degradation
same,Stability in aqueous media at RT,"[3]; pH 1.2, 30 Min",97.03%
same,Stability in aqueous media at RT,"[3]; pH 1.2, 1 hour",96.83%
same,Stability in aqueous media at RT,"[3]; pH 1.2, 2 hours",96.42%
same,Stability in aqueous media at RT,"[3]; pH 1.2, 4 hours",95.71%
same,Stability in aqueous media at RT,"[3]; pH 1.2, 6 hours",95.14%
same,Stability in aqueous media at RT,"[3]; pH 1.2, 1 day",88.40%
same,Stability in aqueous media at RT,"[3]; pH 1.2, 2 days",80.05%
same,Stability in aqueous media at RT,"[3]; pH 1.2, 7 days",30.60%
same,Stability in aqueous media at RT,"[3]; pH 1.2, time 0 (API Powder)",97.21%
same,Stability in aqueous media at RT,"[3]; pH 4.5, 30 Min",96.45%
same,Stability in aqueous media at RT,"[3]; pH 4.5, 1 hour",96.35%
same,Stability in aqueous media at RT,"[3]; pH 4.5, 2 hours",96.24%
same,Stability in aqueous media at RT,"[3]; pH 4.5, 4 hours",95.46%
same,Stability in aqueous media at RT,"[3]; pH 4.5, 6 hours",94.87%
same,Stability in aqueous media at RT,"[3]; pH 4.5, 1 day",90.73%
same,Stability in aqueous media at RT,"[3]; pH 4.5, 2 days",84.24%
same,Stability in aqueous media at RT,"[3]; pH 4.5, 7 days",57.17%
same,Stability in aqueous media at RT,"[3]; pH 4.5, time 0 (API Powder)",97.21%
same,Stability in aqueous media at RT,"[3]; pH 6.8, 30 Min",91.08%
same,Stability in aqueous media at RT,"[3]; pH 6.8, 1 hour",87.32%
same,Stability in aqueous media at RT,"[3]; pH 6.8, 2 hours",80.70%
same,Stability in aqueous media at RT,"[3]; pH 6.8, 4 hours",65.65%
same,Stability in aqueous media at RT,"[3]; pH 6.8, 6 hours",57.40%
same,Stability in aqueous media at RT,"[3]; pH 6.8, 1 day",9.48%
same,Stability in aqueous media at RT,"[3]; pH 6.8, 2 days",7.48%
same,Stability in aqueous media at RT,"[3]; pH 6.8, 7 days",1.77%
same,Stability in aqueous media at RT,"[3]; pH 6.8, time 0 (API Powder)",97.21%
"Nc1ccn([C@@H]2O[C@H](CO)[C@@H](O)C2(F)F)c(=O)n1 [gemcitabine, Gemcitabine]",Oral bioavailability,[4],poor
same,Death or gastrointestinal toxicity after intravenous dosing,mice; comparable exposures via intravenous dosing,did not result in death or gastrointestinal toxicity
same,Intestinal lesions after single oral dose,"mice; single oral (gavage) dose of 167, 333, or 500 mg/kg, Horton et al. 2004",moderate-to-marked loss of mucosal epithelium (atrophic enteropathy)
CCCC(CCC)C(=O)Nc1ccn([C@@H]2O[C@H](CO)[C@@H](O)C2(F)F)c(=O)n1 [LY2334737],Degradation by CDA,CDA,significantly less prone to degradation by CDA
same,Hepatic toxicity,Japanese patients,unexpected hepatic toxicities
